# Test results taken from patent US6369049B1, “Treatment of mastitis” (Eli Lilly and Company, priority 1998, dated 2002).
# What was measured:
# [1] = test system: Staphylococcus aureus 10092 (Newbould strain); test: MIC vs. S. aureus 10092 (Newbould strain); type: cell-based; parameters: unit not given beside the values; details: Table 2a
# Excerpt: (§1) Tables 2 and 2a summarize the minimal inhibitory concentrations (MIC's) at which illustrative formula I compounds and cephalothin inhibit certain microorganisms that are associated with mastitis, such as Staphylococcus aureus 10092 (Newbould strain).
# S. aureus 174 C = test: MIC vs. S. aureus 174 C; type: cell-based, Staphylococcus aureus; parameters: unit not given beside the values; details: Incubated at 37° C. overnight
# Excerpt: as §1
# [2] = test system: Streptococcus agalactiae 150G; test: MIC vs. Streptococcus agalactiae 150G; type: cell-based; parameters: unit not given beside the values; details: Table 2a
# Excerpt: as §1
# [3] = test system: Pasteurella haemolytica 128K (bovine); test: MIC vs. Pasteurella haemolytica 128K (bovine); type: cell-based
# Excerpt: (§2) The formula I compounds are also active against certain Gram-negative species. Tables 3 and 3a show the MIC's of Formula I compounds against certain Gram-negative species.
# [4] = test system: Streptococcus uberis 150 L; test: MIC vs. Streptococcus uberis 150 L; type: cell-based; parameters: unit not given beside the values; details: Incubated at 37° C. overnight
# Excerpt: as §1
# [5] = test system: Streptococcus agalactiae 150 B; test: MIC vs. Streptococcus agalactiae 150 B; type: cell-based; parameters: unit not given beside the values; details: Incubated at 37° C. overnight
# Excerpt: as §1
# Escherichia coli = test: MIC vs. Escherichia coli; type: cell-based; parameters: unit not given beside the values; details: Incubated at 37° C. overnight
# Excerpt: as §2
# [6] = test system: Streptococcus uberis 167I; test: MIC vs. Streptococcus uberis 167I; type: cell-based; parameters: unit not given beside the values; details: Table 2a
# Excerpt: as §1
# [7] = test system: Pasteurella haemolytica 129R (bovine); test: MIC vs. Pasteurella haemolytica 129R (bovine); type: cell-based; details: Incubated at 37° C. overnight
# Excerpt: as §2
# [8] = test system: Pasteurella multocida ATCC 12945; test: MIC vs. Pasteurella multocida ATCC 12945; type: cell-based; details: Incubated at 37° C. overnight
# Excerpt: as §2
# [9] = test system: Pasteurella haemolytica 114F (bovine); test: MIC vs. Pasteurella haemolytica 114F (bovine); type: cell-based; details: Incubated at 37° C. overnight
# Excerpt: as §2
# [10] = test system: Pasteurella multocida 1051 (swine); test: MIC vs. Pasteurella multocida 1051 (swine); type: cell-based; details: Incubated at 37° C. overnight
# Excerpt: as §2
# Salmonella typhimurium = test: MIC vs. Salmonella typhimurium; type: cell-based; details: Incubated at 37° C. overnight
# Excerpt: as §2
# [11] = test system: Streptococcus dysgalactiae; test: MIC vs. Streptococcus dysgalactiae; type: cell-based; parameters: unit not given beside the values; details: Incubated at 37° C. overnight
# Excerpt: as §1
# [12] = test system: Staphylococcus epidermidis 174B; test: MIC vs. Staphylococcus epidermidis 174B; type: cell-based; parameters: unit not given beside the values; details: Table 2a
# Excerpt: as §1
# [13] = test system: Staphylococcus aureus 168H; test: MIC vs. Staphylococcus aureus 168H; type: cell-based; parameters: unit not given beside the values; details: Table 2a
# Excerpt: as §1
# [14] = test system: Staphylococcus aureus 170C; test: MIC vs. Staphylococcus aureus 170C; type: cell-based; parameters: unit not given beside the values; details: Table 2a
# Excerpt: as §1
# [15] = test system: Streptococcus uberis 166 L; test: MIC vs. Streptococcus uberis 166 L; type: cell-based; parameters: unit not given beside the values; details: Incubated at 37° C. overnight
# Excerpt: as §1
# S. aureus ATCC 29213 = test: MIC vs. S. aureus ATCC 29213; type: cell-based, Staphylococcus aureus; parameters: unit not given beside the values; details: Incubated at 37° C. overnight
# Excerpt: as §1
# Streptococcus faecalis = test: MIC vs. Streptococcus faecalis; type: cell-based; parameters: unit not given beside the values; details: Table 2a
# Excerpt: as §1
# [16] = test system: Pasteurella multocida 108E (bovine); test: MIC vs. Pasteurella multocida 108E (bovine); type: cell-based; details: Incubated at 37° C. overnight
# Excerpt: as §2
# [17] = test system: Pasteurella multocida 10,102 (bovine); test: MIC vs. Pasteurella multocida 10,102 (bovine); type: cell-based; details: Incubated at 37° C. overnight
# Excerpt: as §2
# [18] = test system: Streptococcus dysgalactiae 152B; test: MIC vs. Streptococcus dysgalactiae 152B; type: cell-based; parameters: unit not given beside the values; details: Table 2a
# Excerpt: as §1
# S. aureus F1C = test: MIC vs. S. aureus F1C; type: cell-based, Staphylococcus aureus; parameters: unit not given beside the values; details: Incubated at 37° C. overnight
# Excerpt: as §1
compound,measurement,setting,value
"CC(=O)OCC1=C(C(=O)O)N2C(=O)[C@@H](NC(=O)Cc3cccs3)[C@H]2SC1 [Cephalothin, reference compound]","MIC vs. Staphylococcus aureus 10,092",[1],0.5
same,MIC vs. S. aureus 174 C,S. aureus 174 C,0.25
same,MIC vs. Streptococcus agalactiae 150G,[2],0.5
same,MIC vs. Pasteurella haemolytica 128K (bovine),"[3]; Table 3, incubated at 37° C. overnight",0.5
same,MIC against Pasteurella haemolytica Strain 128K,"[3]; Table 3a, incubated at 37° overnight",1
same,MIC vs. Streptococcus uberis 150 L,[4],0.125
same,MIC vs. Streptococcus agalactiae 150 B,[5],0.125
same,MIC vs. Escherichia coli,Escherichia coli,8
same,MIC vs. Streptococcus uberis 167I,[6],32
same,MIC vs. Pasteurella haemolytica 129R (bovine),[7],1
same,MIC vs. Pasteurella multocida ATCC 12945,[8],0.25
same,MIC vs. Pasteurella haemolytica 114F (bovine),[9],1
same,MIC vs. Pasteurella multocida 1051 (swine),[10],0.25
same,MIC vs. Salmonella typhimurium,Salmonella typhimurium,4
same,MIC vs. Streptococcus dysgalactiae,[11],0.0625-0.125
same,MIC vs. Staphylococcus epidermidis 174B,[12],0.5
same,MIC vs. Staphylococcus aureus 168H,[13],0.5
same,MIC vs. Staphylococcus aureus 170C,[14],0.5
same,MIC vs. Streptococcus uberis 166 L,[15],0.0625
same,MIC vs. S. aureus ATCC 29213,S. aureus ATCC 29213,0.25
same,MIC vs. Streptococcus faecalis,Streptococcus faecalis,16
same,MIC vs. Pasteurella multocida 108E (bovine),[16],0.5
same,"MIC vs. Pasteurella multocida 10,102 (bovine)",[17],0.5
same,MIC vs. Streptococcus dysgalactiae 152B,[18],0.5
same,MIC vs. S. aureus F1C,S. aureus F1C,0.25
